Measured values reported in patent US20210238224A1, “METHOD OF CONSTRUCTING PROTAC BY USING DOUBLE TARGETS” (THE FIRST AFFILIATED HOSPITAL OF SUN YAT-SEN UNIVERSITY, priority 2018, published 2021).

Target: T1, Smad3 (Rattus norvegicus, UniProt P84025)
T1 construct: endogenous in cells; host or cells: NRK49F rat kidney fibroblasts, stimulated with TGF-β1
Assay: Western blot of Smad3 degradation in TGF-β1-stimulated rat kidney fibroblasts
Type: cell-based
Conditions: NRK49F cells, 48 hours, FIGS. 6(A), 6(B)
Experimental: Rat kidney fibroblasts (NRK49F cell line) are cultured in vitro, passage 1:3 or 1:4 to six-well plates before cell fusion, and are divided into a TGF-β1 control group (TGF-β1 10 ng/ml), a PROTAC-PEG action group (TGF-β1 10 ng/ml+PROTAC-PEG of different concentrations: 1, 5, 25, 125 nM), and a PROTAC-butanedioic acid action group (TGF-β1 10 ng/ml+PROTAC-butanedioic acid of different concentrations: 1, 5, 25, 125 nM); the cells are lysed after 48 hours of culture and are used for Western blot.

T1 sequence (P84025 whole entry): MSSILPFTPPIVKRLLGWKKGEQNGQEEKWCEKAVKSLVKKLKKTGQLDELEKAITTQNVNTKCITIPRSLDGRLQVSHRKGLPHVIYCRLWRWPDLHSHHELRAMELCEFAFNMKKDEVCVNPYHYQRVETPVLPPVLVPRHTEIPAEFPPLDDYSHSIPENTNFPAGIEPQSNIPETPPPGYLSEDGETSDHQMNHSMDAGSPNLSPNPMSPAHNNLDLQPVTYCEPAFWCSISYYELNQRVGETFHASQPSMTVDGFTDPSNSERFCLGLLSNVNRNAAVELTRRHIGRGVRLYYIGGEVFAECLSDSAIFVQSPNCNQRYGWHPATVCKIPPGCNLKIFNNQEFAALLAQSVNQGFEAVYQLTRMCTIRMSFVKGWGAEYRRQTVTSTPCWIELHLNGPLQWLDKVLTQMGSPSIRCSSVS

Q: For `C[C@@H](NC(=O)[C@@H]1C[C@@H](O)CN1C(=O)[C@@H](NC(=O)CCC(=O)NC(c1cccnc1)c1cc2ccccc2o1)C(C)(C)C)c1ccc(-c2cc(N)cs2)cc1` (stereo partly drawn) [PROTAC-butanedioic acid], which “degradation of target protein Smad3 (Western blot)” value (TGF-β1 10 ng/ml + PROTAC 1, 5, 25, 125 nM) is on record?
A: degrades the target protein Smad3 in a concentration-dependent manner

Q: And the “Smad3-degrading activity compared with PROTAC-PEG” value (TGF-β1 10 ng/ml)?
A: significantly higher than that of PROTAC-PEG

Q: What about the “effective concentration for Smad3 degradation” value (TGF-β1 10 ng/ml) of the same molecule?
A: 25 nM
